For data set [1], the system named is rat. The conditions noted are these: Sub-acute repeat dose toxicity, sprague dawley, Oral, Gavage/Intubation, dose end: 10 day, group: systemic.
The test system of data set [2] is rat. The conditions noted are these: Subchronic oral toxicity in rodents, sprague dawley, Gavage/Intubation, dose end: 90 day, group: systemic.
Data set [3] has as its system rat. The following applies: Subchronic oral toxicity in rodents, fischer, Gavage/Intubation, dose end: 13 week, group: systemic.
In data set [4] the test system is mouse. The conditions noted are these: Combined chronic toxicity/carcinogenicity, b6c3f1, Oral, Gavage/Intubation, dose end: 2 year, group: systemic.
For data set [5], the system named is rat. The following applies: Combined chronic toxicity/carcinogenicity, fischer, Oral, Gavage/Intubation, dose end: 2 year, group: systemic.
Data set [6] relates to mouse. The conditions noted are these: Subchronic oral toxicity in rodents, b6c3f1, Gavage/Intubation, dose end: 13 week, group: systemic, systemic / pathology microscopic / kidney / vacuolization cytoplasmic + systemic / pathology microscopic / liver / vacuolization cytoplasmic….
Data set [7] concerns rat. The conditions noted are these: Prenatal developmental toxicity study, Crl: CD BR, Oral, Gavage/Intubation, dose end: 15 GD.
The test system of data set [8] is rat. The following applies: Multigenerational reproductive toxicity study, other, Oral, Feed, dose end: 2 generation.
The subject of data set [9] is rat. The following applies: Chronic toxicity, wistar, Oral, Feed, dose end: 105 week, group: systemic.
Data set [10] relates to rabbit. The following applies: Prenatal developmental toxicity study, other, Oral, Gavage/Intubation, dose end: 18 GD.
Data set [11] concerns mouse. The following applies: Carcinogenicity, cd1, Oral, Feed, dose end: 24 month, group: systemic.
Data set [12] has as its system rat. The conditions noted are these: Subchronic oral toxicity in rodents, wistar, Feed, dose end: 3 month, group: systemic, systemic / organ weight / liver / nos.
Data set [13] relates to rabbit. The conditions noted are these: Prenatal developmental toxicity study, new zealand white, Oral, Gavage/Intubation, dose end: 18 GD.
The next data set has as its system dog. The following applies: Chronic toxicity, beagle, Oral, Feed, dose end: 104 week, group: systemic.
Data set [14] relates to rat. The following applies: Subchronic inhalation toxicity, sprague dawley, Nose-Only, dose end: 90 day, group: systemic, systemic / pathology microscopic / nose / degeneration + systemic / pathology microscopic / nose / hyperkeratosis + systemic / pathology ….
For data set [15], the system named is rat. The conditions noted are these: Prenatal developmental toxicity study, sprague dawley, Oral, Gavage/Intubation, dose end: 19 GD.
In data set [16] the test system is rat. The conditions noted are these: Sub-acute dermal toxicity, Sprague-Dawley, Topical, dose end: 29 day, group: systemic, systemic / in life observation / clinical signs / anogenital staining.
Data set [17] relates to rat. The conditions noted are these: Subchronic oral toxicity in rodents, sprague dawley, Feed, dose end: 13 week, group: systemic.
Data set [18] relates to rat. The conditions noted are these: Subchronic dermal toxicity, other, Topical, dose end: 90 day, group: systemic, systemic / pathology gross / skin / lesion(s) (nos).
[19] abbreviates: systemic / clinical chemistry / cholesterol / cholesterol + systemic / in life observation / body weight / body weight + systemic / organ ….
Where [20] appears, read: systemic / clinical chemistry / alkaline phosphatase (alp/alk) / alkaline phosphatase (alp/alk) + systemic / clinical chemistry / calcium / ….
[21] abbreviates: systemic / pathology microscopic / liver / inflammation + systemic / clinical chemistry / aspartate aminotransferase (ast/sgot) / aspartate ….
[22] abbreviates: systemic / in life observation / body weight / body weight + systemic / in life observation / mortality / mortality.
Where [23] appears, read: systemic / in life observation / body weight / body weight + systemic / pathology microscopic / kidney / vacuolization cytoplasmic + ….
Where [24] appears, read: systemic / pathology microscopic / kidney / vacuolization cytoplasmic + systemic / pathology microscopic / liver / vacuolization cytoplasmic….
Setting [25] is: systemic / in life observation / body weight / body weight + systemic / in life observation / body weight / body weight gain.
The mark [26] stands for this setting: group: developmental, developmental / developmental malformation / bone / incomplete ossification.
[27] abbreviates: group: developmental, developmental / developmental malformation / bone / incomplete ossification + systemic / in life observation / body weight / fetal weight + ….
[28] abbreviates: group: maternal, systemic / in life observation / body weight / body weight gain + systemic / in life observation / food consumption / food consumption + ….
The mark [29] stands for this setting: group: offspring, systemic / in life observation / body weight / offspring (pup) weight.
Setting [30] is: group: parental, systemic / in life observation / body weight / body weight gain + systemic / clinical chemistry / gamma glutamyl transferase (ggt) / gamma ….
The mark [31] stands for this setting: group: parental, systemic / in life observation / body weight / body weight gain + systemic / in life observation / food consumption / food consumption + ….
Setting [32] is: systemic / in life observation / body weight / body weight gain + systemic / organ weight / kidney / absolute + systemic / organ weight / ….
Where [33] appears, read: group: developmental, developmental / developmental malformation / bone / [other].
Setting [34] is: group: maternal, systemic / in life observation / body weight / body weight gain.
The mark [35] stands for this setting: group: maternal, systemic / in life observation / body weight / body weight gain + systemic / in life observation / food consumption / food consumption.
[36] abbreviates: systemic / organ weight / liver / relative to body weight.
Setting [37] is: group: developmental, systemic / in life observation / body weight / fetal weight.
Setting [38] is: group: maternal, reproductive / reproductive performance / reproductive performance other / runts.
The mark [39] stands for this setting: systemic / organ weight / kidney / relative to body weight + systemic / organ weight / pancreas / relative to body weight + systemic / organ….
Setting [40] is: group: developmental, systemic / in life observation / body weight / fetal weight + developmental / developmental malformation / bone / bipartite ossification + ….
Where [41] appears, read: group: maternal, systemic / in life observation / clinical signs / salivation.
Setting [42] is: group: maternal, systemic / in life observation / clinical signs / salivation + reproductive / reproductive performance / resorptions / resorptions + ….
The mark [43] stands for this setting: systemic / pathology microscopic / spinal cord / vacuolization + systemic / pathology microscopic / brain / vacuolization.
Where [44] appears, read: systemic / pathology microscopic / spinal cord / vacuolization + systemic / pathology microscopic / brain / vacuolization + systemic / organ….

Broadly, the LOAEL is the lowest tested level that showed an adverse finding. As a reminder, the NOAEL is the highest dose or exposure tested at which no adverse effect was seen.

Consider `Clc1cccc(Cl)c1` [1,3-Dichlorobenzene], for which the NEL with rat [1] (systemic / clinical chemistry / cholesterol / cholesterol + systemic / in life observation / body weight / body weight + systemic / in life …) is 37 mg/kg/day; in the data set with rat [2] (setting [21]), < 9 mg/kg/day. Also, the LOAEL is > 735 mg/kg/day in the data set with rat [1] (setting [19]) and > 588 mg/kg/day in the data set with rat [2] (setting [20]). The no observed adverse effect level (NOAEL) with rat [1] (setting [19]) was ≥ 735 mg/kg/day; with rat [2] (setting [20]) it was ≥ 588 mg/kg/day. Further, the LEL in the data set with rat [1] (systemic / organ weight / liver / nos + systemic / pathology microscopic / liver / necrosis) is 147 mg/kg/day; with rat [2] (setting [21]), 9 mg/kg/day.
In the case of `CC(=O)OC(C)c1ccccc1` (stereo not drawn) [Benzenemethanol, alpha-methyl-, acetate], the LOAEL with rat [3] (systemic / in life observation / body weight / body weight) is 4000 mg/kg/day; in the data set with mouse [4] (setting [23]), 1000 mg/kg/day; in the data set on rat [5] (systemic / in life observation / body weight / body weight + systemic / pathology microscopic / kidney / nephropathy), 2000 mg/kg/day; in the data set on mouse [6], 2000 mg/kg/day. The NEL in the data set on rat [3] (setting [22]) is 2000 mg/kg/day; in the data set with mouse [4] (setting [24]) it was < 500 mg/kg/day; in the data set on rat [5] (setting [25]), < 1000 mg/kg/day; with mouse [6], 1000 mg/kg/day. Besides, the no observed adverse effect level (NOAEL) in the data set on rat [3] (setting [22]) was determined as 2000 mg/kg/day; in the data set with mouse [4] (setting [23]) it was 500 mg/kg/day; with rat [5] (systemic / in life observation / body weight / body weight + systemic / pathology microscopic / kidney / nephropathy + systemic / in life …), 1000 mg/kg/day; in the data set on mouse [6], 1000 mg/kg/day. The LEL with rat [3] (systemic / in life observation / body weight / body weight + systemic / in life observation / mortality / mortality + systemic / pathology …) stood at 4000 mg/kg/day; in the data set on mouse [4] (setting [24]), 500 mg/kg/day; with rat [5] (setting [25]) it was 1000 mg/kg/day; with mouse [6], 2000 mg/kg/day.
Turning to `CSc1nnc(C(C)(C)C)c(=O)n1N` [Metribuzin], the LEL with rat [7] (setting [26]) amounted to 25 mg/kg/day; with rat [7] (setting [28]), 25 mg/kg/day; in the data set on rat [8] (setting [29]) it was 7.5 mg/kg/day; in the data set with rat [8] (setting [30]), 7.5 mg/kg/day; in the data set with rat [9] (systemic / organ weight / lung / relative to body weight), 1.87 mg/kg/day; with rabbit [10] (setting [33]), 85 mg/kg/day. Moreover, the LEL in the data set on rabbit [10] (setting [34]) stood at 30 mg/kg/day; in the data set with mouse [11] (setting [36]), 35 mg/kg/day; in the data set on rat [12], 3 mg/kg/day; in the data set with rabbit [13] (setting [37]) it was 45 mg/kg/day; in the data set on rabbit [13] (setting [38]), 45 mg/kg/day; in the data set on dog (setting [39]), 0.625 mg/kg/day. The NEL in the data set on rat [7] (setting [26]) was < 25 mg/kg/day; in the data set on rat [7] (setting [28]), < 25 mg/kg/day; in the data set with rat [8] (setting [29]) it was 1.5 mg/kg/day; with rat [8] (setting [31]), 1.5 mg/kg/day; in the data set on rat [9] (setting [32]) it was 1.3 mg/kg/day; with rabbit [10] (setting [33]), 30 mg/kg/day. The NEL is 10 mg/kg/day with rabbit [10] (setting [35]); < 35 mg/kg/day in the data set with mouse [11] (setting [36]); 1.25 mg/kg/day with rat [12]; 15 mg/kg/day in the data set with rabbit [13] (setting [37]); 15 mg/kg/day in the data set on rabbit [13] (setting [38]); < 0.625 mg/kg/day in the data set on dog (setting [39]). For the same molecule, the LOAEL is 200 mg/kg/day in the data set with rat [7] (setting [27]); > 200 mg/kg/day in the data set on rat [7] (setting [28]); 7.5 mg/kg/day in the data set with rat [8] (setting [29]); 7.5 mg/kg/day in the data set on rat [8] (setting [30]); 14.4 mg/kg/day in the data set on rat [9] (systemic / in life observation / body weight / body weight gain); 85 mg/kg/day with rabbit [10] (setting [33]). Moreover, the lowest observed adverse effect level (LOAEL) was determined as 30 mg/kg/day in the data set with rabbit [10] (setting [34]); 567 mg/kg/day in the data set on mouse [11] (systemic / hematology / hematocrit (hct) / hematocrit (hct) + systemic / hematology / hemoglobin (hgb) / hemoglobin (hgb)); 3 mg/kg/day with rat [12]; 45 mg/kg/day with rabbit [13] (setting [37]); 135 mg/kg/day with rabbit [13] (group: maternal, reproductive / reproductive performance / aborted / aborted + systemic / in life observation / body weight / body weight); 37.5 mg/kg/day in the data set on dog (systemic / clinical chemistry / cholesterol / cholesterol + systemic / hematology / blood clotting / blood clotting - prothrombin time + …). For the same molecule, the no-observed-adverse-effect level (NOAEL) was 70 mg/kg/day in the data set with rat [7] (setting [27]); ≥ 200 mg/kg/day in the data set with rat [7] (setting [28]); 1.5 mg/kg/day with rat [8] (setting [29]); 1.5 mg/kg/day with rat [8] (setting [31]); 5.27 mg/kg/day with rat [9] (setting [32]); 30 mg/kg/day in the data set with rabbit [10] (setting [33]). For the same molecule, the NOAEL turned out to be 10 mg/kg/day with rabbit [10] (setting [35]); 139 mg/kg/day in the data set with mouse [11] (systemic / hematology / hematocrit (hct) / hematocrit (hct) + systemic / hematology / hemoglobin (hgb) / hemoglobin (hgb) + systemic / organ…); 1.25 mg/kg/day in the data set on rat [12]; 15 mg/kg/day in the data set on rabbit [13] (setting [37]); 45 mg/kg/day in the data set on rabbit [13] (group: maternal, reproductive / reproductive performance / aborted / aborted + systemic / in life observation / body weight / body weight + reproductive / …); 2.5 mg/kg/day with dog (systemic / organ weight / kidney / relative to body weight + systemic / organ weight / pancreas / relative to body weight + systemic / …).
Turning to `N#Cc1c(-c2ccc(Cl)cc2)[nH]c(C(F)(F)F)c1Br` [Tralopyril], the LEL in the data set with rat [14] was determined as 1.4 ppm; in the data set with rat [15] (setting [37]) it was 10 mg/kg/day; with rat [15] (setting [41]), 10 mg/kg/day; with rat [16], 1000 mg/kg/day; in the data set with rat [17] (setting [44]) it was 6.3 mg/kg/day; with rat [18], 300 mg/kg/day. The LOAEL was 1.4 ppm with rat [14]; 10 mg/kg/day in the data set on rat [15] (setting [37]); 10 mg/kg/day with rat [15] (setting [41]); > 1000 mg/kg/day in the data set on rat [16]; 6.3 mg/kg/day in the data set with rat [17] (setting [43]); 300 mg/kg/day with rat [18]. Further, the NEL with rat [14] was < 1.4 ppm; in the data set on rat [15] (setting [40]) it was 5 mg/kg/day; in the data set on rat [15] (setting [42]), 5 mg/kg/day; in the data set on rat [16], 300 mg/kg/day; in the data set on rat [17] (setting [44]), < 6.3 mg/kg/day; in the data set on rat [18], 100 mg/kg/day. The NOAEL is < 1.4 ppm in the data set with rat [14]; 5 mg/kg/day in the data set on rat [15] (setting [40]); 5 mg/kg/day in the data set on rat [15] (setting [42]); ≥ 1000 mg/kg/day with rat [16]; < 6.3 mg/kg/day with rat [17] (setting [43]); 100 mg/kg/day with rat [18].

The record behind these values is EPA's ToxRefDB 2.
